What was measured:
[1] = Calcein leakage assay; type: in vitro ADME; parameters: calcein escaped from the vesicles: dose or concentration left out as unconfirmed
Method: The leakage of vesicle contents was monitored by measuring the release of calcein (Terzi et al., 1995 and Pillot et al, 1996). Vesicles were prepared and separated from free calcein as described above for the radioactive compounds, except that the rehydration buffer contained […] calcein and 10 mM Na-EDTA. In the kinetic assay, peptide was added to the vesicle solution and the fluorescence was measured at ten minute intervals with excitation and emission wavelengths of 490 and 520 nm, respectively. Data were fit to an equation for a first order rate process. For the concentration dependence assay, different amounts of peptide were added to the vesicle solution and the fluorescence was measured after a two hour incubation at 37° C. The maximum leakage was determined by lysing the vesicles with the addition of 0.5% (w/v) Triton X-100.
The leakage of vesicle contents was monitored by measuring the release of calcein (Terzi et al., 1995; Pillot et al., 1996). Vesicles were prepared and separated from free calcein as described herein for the radioactive compounds, except that the rehydration buffer contained 40 mM calcein and 1 mM Na-EDTA. […] The maximum fluorescence was measured by lysing the vesicles with the addition of 0.1% (w/v) Triton X-100.

[2] = Solubility in aqueous media and organic solvents
[3] = biological target: Aβ40 fibrils (Homo sapiens, UniProt P05067)
Aβ40 fibrils, sequence (P05067 672-711): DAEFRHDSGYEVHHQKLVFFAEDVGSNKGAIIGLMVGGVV

[4] = biological target: PrP106-126 (Homo sapiens, UniProt P04156); type: biochemical
PrP106-126, sequence (P04156 106-126 limits assumed): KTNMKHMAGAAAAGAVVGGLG

[5] = Circular dichroism under denaturing conditions (urea, pH, GuHCl, temperature); type: physicochemical; settings: pH 2.5-10.5, 8M GuHCl, 20° and 70° C.
Method: (§1) A 1 mm or 0.1 mm pathlength cell was used for measurements, depending on the concentration of the solution. Six to eight scans were acquired from 250 nm to 200 nm. For the pH experiment, a 100 mM phosphate-citrate buffer was used for pH 2.5-6.5, a 100 mM phosphate buffer was used for pH 7.5-8.5 and a 100 mM glycine-NaOH buffer was used for pH 9.5-10.5.
as §1, with “The circular dichroic (CD) spectra were recorded using a Jasco P715 spectropolarimeter. […] A” for “A”, “9.5-10.5. For the urea denaturation experiment, Ad 16-20m was dissolved in 100 mM phosphate buffer pH 7.4 with 0-8.5 M urea.” for “9.5-10.5.”

[6] = biological target: Aβ40 (Homo sapiens, UniProt P05067); experiment: Inhibition of Aβ40 fibrillogenesis, thioflavin T fluorescence assay; type: biochemical
Aβ40, sequence (P05067 672-711): as the sequence (P05067 672-711) above

Question: Which results are given for `CC(=O)N[C@@H](CCCCN)C(=O)N(C)[C@@H](CC(C)C)C(=O)N[C@H](C(=O)N(C)[C@@H](Cc1ccccc1)C(=O)N[C@@H](Cc1ccccc1)C(N)=O)C(C)C` [Aβ16-20m, Ac—NH—K(me-L)V(me-F)F—CONH2]?
Answer: leakage of calcein from vesicles (in words) [1]: causes the leakage of calcein; calcein escaped from the vesicles ([1]; highest concentration tested): 82%; calcein efflux ([1]; low micromolar concentrations of peptide): less than 10%; solubility [2]: ≥ 30 mM; solubility in aqueous media (in words) [2]: highly soluble in aqueous media; solubility in organic solvents (in words) ([2]; DMF, diethyl ether, methylene chloride, chloroform): highly soluble; half-life [3]: 24 ± 7 min; inhibition of fibril formation by PrP106-126 [4]: ineffective; stability of peptide structure by CD (mean residue ellipticity at 226 nm) [5]: extremely stable and resistant to chemical denaturation; effect on Aβ40 fibril formation (in words) [6]: highly effective inhibitor

Reference: US20030130484A1, “Inhibitors and disassemblers of fibrillogenesis” (priority 2001, published 2003)
